Assay results as given in paper PMC11484942, “Rumicidins are a family of mammalian host-defense peptides plugging the 70S ribosome exit tunnel” (Nature Communications, 2024).
Ends that are not written are not given here.

Tests used:
[1] = system: mycobacteria; settings: cited from earlier work
Description: To estimate the therapeutic potential of rumicidins as candidate compounds for combating bacterial infections, we assessed their antimicrobial activity against a wide panel of strains. As expected, antibacterial activities of rumicidins, like those of known PrAMPs, decreased in most cases in the presence of salt, which might inhibit the adsorption of the peptides to the bacterial surface. Besides, their activities against Gram-negative bacteria deficient in SbmA protein (Pseudomonas aeruginosa and Proteus mirabilis) were also less pronounced. Amon ...

[2] = system: E. coli BL21 (DE3) Star cell extract; assay: Cell-free protein synthesis (coupled transcription/translation) of EGFP; assay type: biochemical, Escherichia coli; settings: minimum concentration that provides >90% inhibition of the EGFP synthesis in the CFPS system
Procedure: To investigate the effects of AMPs and antibiotics on the coupled transcription/translation process, the test compounds were added to a cell-free protein synthesis (CFPS) reaction mix with a plasmid encoding enhanced green fluorescent protein (EGFP) variant (F64L, S65T, Q80R, F99S, M153T, and V163A) under control of the T7 promoter. The cell lysate was prepared using the E. coli BL21 Star (DE3) overexpressed T7 RNA polymerase as described previously. The reaction mix consisted of the following components: 1.2 mM ATP, 0.8 mM UTP, 0.8 mM GTP, 0.8 mM CTP, 2 mM of each of 20 proteinogenic amino acids, 1.5 mM spermidine, 1 mM putrescine dihydrochloride, 0.06647 mM calcium folinate, […] tRNA from the E. coli MRE 600 strain, 0.33 mM NAD, 120 mM HEPES-KOH (pH 8.0), 10 mM ammonium glutamate, 175 mM potassium glutamate, 60 mM glucose, 15 mM magnesium glutamate, 2% PEG 8000, 25% E. coli BL21 Star (DE3) cell lysate, 1 ng/ml plasmid DNA. The reaction volume was 50 µL. The peptides were dissolved in PBS with the addition of 0.1% BSA. Erythromycin was used in the positive control reactions. The fluorescence of the sample without inhibitor was set as the 100% value. The reaction proceeded for 2 h in 96-well v-bottom black polystyrene microplates (Eppendorf #0030601904) in a plate shaker (30 °C, 1000 rpm). The fluorescence of the synthesized EGFP was measured with the microplate reader AF2200 (λEx = 488 nm, λEm = 510 nm; Eppendorf). The experimental data were obtained from at least two independent experiments performed in triplicate. Non-linear regression curves were generated using GraphPad Prism v.8.0.1 (GraphPad Software Inc.).

[3] = system: ribosome on ermCL / RST1 mRNA; assay: Toe-printing (primer-extension inhibition) in PURExpress system; assay type: biochemical; settings: 5 µM
Procedure: Toe-print analysis was performed as previously described[20] on two matrices: ErmCL and RST1. Briefly, the PURExpress system (NEB) was used for transcription and subsequent translation, then a reverse transcription reaction was performed. The ErmCL template was generated by PCR with two partially self-complementary oligonucleotides (Erm-F and Erm-R, Supplementary Table 8). […] oligonucleotide was used for reverse transcription. RST1 template was prepared as previously described[58] using PCR primers (T7fwd and NV1). Concentrations of tested compounds in toe-print were 0.5, 5, or 50 μM. 1% (v/v) DMSO water solution was used as a negative control sample. Two independent experiments were performed using both matrices, and the observed effects were the same.

[4] = system: E. coli BW25113; assay: MIC broth microdilution; assay type: cell-based, Escherichia coli
Procedure: (§1) The reduction of resazurin to resorufin was recorded.

[5] = system: E. coli ML-35p; assay: Cytoplasmic membrane permeability assay (ONPG); assay type: cell-based, Escherichia coli; settings: 4 h exposure, 10 mM NaPB pH 7.4 + 0.9% NaCl, melittin = 100%, mean of two experiments
Procedure: To examine the ability of the peptides to affect the barrier function of outer and inner membranes of Gram-negative bacteria, we slightly modified the previously described procedure[22] with the use of the E. coli ML-35p strain constitutively expressing cytoplasmic β-galactosidase but lacking lactose permease, and also containing β-lactamase in the periplasmic space. The state of the E. coli ML-35p outer and cytoplasmic membranes was assessed based on their permeability to chromogenic markers nitrocefin (Calbiochem) and o-nitrophenyl-β-D-galactopyranoside (ONPG, AppliChem) which are the β-lactamase and β-galactosidase substrates, respectively. The cells were incubated in the trypticase soy broth (TSB) for 16 h at 37 °C, washed three times with phosphate-buffered saline (PBS, pH 7.4) to remove residual growth media, adjusted to the concentration of 2.5 × 10^8 CFU/mL, and stored on ice until used. Experiments were performed in 10 mM sodium phosphate buffer (NaPB, pH 7.4) with or without the addition of 0.9% NaCl and/or a mixture of divalent cations (0.5 mM CaCl2 and 0.5 mM MgSO4). The final concentration of E. coli ML-35p cells was of 2.5 × 10^7 CFU/mL. The concentrations of ONPG and nitrocefin were of 2.5 mM and 20 µM, respectively. Peptide samples were placed in the wells of a 96-well flat-bottom polystyrene microplate, and optical density of the solution enhanced due to an appearance of the hydrolyzed nitrocefin or ONPG and was measured at 492 and 405 nm, respectively, using a microplate reader AF2200. The final volume in each well was 200 µL. Assays were performed at 37 °C under stirring at 500 rpm. Control experiments were performed under the same conditions without adding a peptide. Two independent experiments were performed, and the curve pattern was the same.

[6] = system: E. coli 1057 R2 (rpoS^Q3stop, macB^N470D); settings: MHB + 0.9% NaCl
Procedure: Minimum inhibitory concentrations (MIC) were determined by broth microdilution assay based on Clinical and Laboratory Standards Institute (CLSI) guidelines using BSA in the growth medium to minimize AMP nonspecific adsorption. Bacterial test cultures were grown in the Mueller-Hinton broth (MHB, Sigma) at 37 °C to mid-log phase and then diluted with the 2× MH medium supplemented with 1.8% NaCl (or without salt) so that to reach a final cell concentration of 10^6 CFU/mL. 50 µL of the obtained bacterial suspension were added to aliquots of 50 µL of the peptide solutions serially diluted with sterilized 0.1% bovine serum albumin (BSA) in 96-well flat-bottom polystyrene microplates (Eppendorf #0030730011). […] To verify MIC values, the respiratory activity of the bacteria was determined. Briefly, 5 µL of 0.5 mg/mL resazurin (Sigma) was added to the wells after 24 h (or after 48 h for M. smegmatis) of incubation, and the plate was incubated for additional 3 h. In some cases, MICs were determined in the Lysogeny Broth (LB) or Middlebrook 7H9 medium. The reduction of resazurin to resorufin was recorded. […] The results were expressed as the median values determined based on at least three independent experiments performed in triplicate.
Resistance induction experiments were performed using the previously described method. This approach allows for monitoring MIC values after each transfer. Briefly, on the first day, the overnight culture of the wild-type bacteria was diluted with the 2× MHB supplemented with 1.8% NaCl (or without salt) to reach a final cell concentration of 10^6 CFU/mL. 50 µL of the obtained bacterial suspension were added to aliquots of 50 µL of the peptide solutions serially diluted with the sterilized 0.1% BSA in 96-well flat-bottom polystyrene microplates. After incubation for 20 ± 2 h at 37 °C and 950 rpm, MICs were determined as described above. For each subsequent daily transfer, 2–4 μL of the inoculum taken from the first well containing a sub-inhibitory drug concentration was diluted with 2 mL of the fresh 2× MHB supplemented with 1.8% NaCl (or without salt). […] Multiple repeated passages in the presence of antimicrobial agents were performed for each bacterial strain during the experiment. Bacteria that grew at the highest concentrations of AMPs on the final day were passaged further 3 times on drug-free agar plates before determining the final MIC value.

[7] = system: S. aureus ATCC 29213; assay type: cell-based, Staphylococcus aureus; settings: ATCC 29213, 24 h
Procedure: as §1

[8] = system: Mycobacterium smegmatis mc(2)155; assay type: cell-based; settings: Mycobacterium mc(2)155, 24 h
Procedure: as §1

[9] = system: panel of tested strains; settings: over all tested strains of Fig. 6a
Procedure: Minimum inhibitory concentrations (MIC) were determined by broth microdilution assay based on Clinical and Laboratory Standards Institute (CLSI) guidelines using BSA in the growth medium to minimize AMP nonspecific adsorption[49]. Bacterial test cultures were grown in the Mueller-Hinton broth (MHB, Sigma) at 37 °C to mid-log phase and then diluted with the 2× MH medium supplemented with 1.8% NaCl (or without salt) so that to reach a final cell concentration of 10^6 CFU/mL. 50 µL of the obtained bacterial suspension were added to aliquots of 50 µL of the peptide solutions serially diluted with sterilized 0.1% bovine serum albumin (BSA) in 96-well flat-bottom polystyrene microplates (Eppendorf #0030730011). […] To verify MIC values, the respiratory activity of the bacteria was determined. Briefly, 5 µL of 0.5 mg/mL resazurin (Sigma) was added to the wells after 24 h (or after 48 h for M. smegmatis) of incubation, and the plate was incubated for additional 3 h. In some cases, MICs were determined in the Lysogeny Broth (LB) or Middlebrook 7H9 medium. The reduction of resazurin to resorufin was recorded. […] The results were expressed as the median values determined based on at least three independent experiments performed in triplicate.

[10] = system: E. coli ATCC 25922; assay type: cell-based, Escherichia coli; settings: ATCC 25922, 24 h
Procedure: as §1

[11] = system: E. cloacae XDR CI 4172; assay type: cell-based, Enterobacter cloacae; settings: XDR CI 4172, 24 h
Procedure: as §1

[12] = system: human red blood cells (hRBC); assay: Hemolysis (hemoglobin release assay); assay type: cell-based; settings: mean
Procedure: (§2) Hemolytic activity of the peptides was tested against the fresh suspension of human red blood cells (hRBC) using the hemoglobin release assay as described previously. Two experiments were performed with the hRBC from blood samples collected from healthy donors by certified medical personnel upon informed written consent. All procedures were approved by the Ethics Committee of the Institute of Experimental Medicine (protocol 1/20 of 2/27/2020) and comply with the ethical principles of the Declaration of Helsinki. The quantitative data were represented as average means with standard deviations. The colorimetric 3-(4,5-dimethylthiazol-2-yl)-2,5-diphenyltetrazolium bromide (MTT) dye reduction assay was used to determine cytotoxicity of the peptides against human keratinocyte cell line (HaCaT) and transformed human embryonic kidney cells (HEK293T). Both cell lines were purchased from American Type Culture Collection (ATCC). 10^4 cells per well in Dulbecco’s modified Eagle’s medium (DMEM/F12) supplemented with 10% fetal bovine serum (FBS, Invitrogen) were placed into 96-well plates and then cultured in the CO2-incubator (5% CO2, 37 °C). After the media were removed, the peptides were dissolved in 100 µL of the same medium and added to cell cultures at different final concentrations. 20 h later, 20 μL of MTT (5 mg/mL, Sigma) was added to each well, and the plates were incubated for 4 h at 37 °C. Then, the media were discarded and 100 µL DMSO-isopropanol mixture at a ratio of 1:1 (v/v) was added to each well to dissolve the crystallized formazan. The absorbance at 570 nm was measured by a microplate reader AF2200 (Eppendorf). An optical density in the wells containing cells cultured without the peptides was assumed to represent 100% cell viability. Two independent experiments were performed for each peptide.

[13] = system: HEK293T (transformed embryonic kidney cells); assay: MTT cytotoxicity; assay type: cell-based, human; settings: mean
Procedure: as §2

[14] = system: HaCaT (keratinocytes); assay: MTT cytotoxicity; assay type: cell-based, human
Procedure: as §2

[15] = system: P. aeruginosa ATCC 27853; assay type: cell-based, Pseudomonas aeruginosa; settings: ATCC 27853, 24 h
Procedure: as §1

[16] = system: M. luteus B-1314; assay type: cell-based, Micrococcus luteus; settings: B-1314, 24 h
Procedure: as §1

[17] = system: Proteus mirabilis XDR CI 3423; assay type: cell-based; settings: XDR CI 3423, 24 h
Procedure: as §1

## PR-39
[1]
  MIC: ~ 10 µM

## KPRPPHRPRPRPRPWFPPRFP [Rum-1[9-29]]
[2]
  Protein synthesis inhibition: 4 µM
[3]
  toe-print result: strong AUG toe-print signal comparable to that of the wild-type peptide
[4]; Mueller-Hinton broth + 0.9% NaCl, 24 h 37 °C, median of ≥3 experiments
  Minimum inhibitory concentration MHB + 0.9% NaCl: 32 µM
[4]; Mueller-Hinton broth without salt, 24 h 37 °C, median of ≥3 experiments
  Minimum inhibitory concentration MHB: 8 µM
[4]; N-terminal shortening
  fold change of MIC vs wild-type rumicidin-1: ≥ 4 fold
[5]; 4 µM
  permeabilized cells (ONPG hydrolysis, % of melittin): 0.080%
[5]; 16 µM
  permeabilized cells (ONPG hydrolysis, % of melittin): 1.213%
[5]; 64 µM
  permeabilized cells (ONPG hydrolysis, % of melittin): 3.493%

## RIKIPRPPKPRRPHRPRPGRRRPWFPPRFP [Rumicidin-3]
[6]
  MIC: 4 µM
[7]
  MIC S. aureus ATCC 29213: > 32 µM
[8]
  Minimum inhibitory concentration (MIC): 4 µM
[9]
  median MIC: about 2 µM

## RRIRPRPPRLPRPRPRPLPFPR [Bac7[1-22]]
[6]
  MIC: 32 µM
[10]
  MIC E. coli ATCC 25922: 1 µM
[11]
  MIC E. cloacae XDR CI 4172: 1 µM
[7]
  MIC S. aureus ATCC 29213: > 32 µM
[12]; 0.25 µM
  Hemolysis: 0.017%
[12]; 0.5 µM
  Hemolysis: 0.093%
[12]; 1 µM
  Hemolysis: 0.134%
[12]; 2 µM
  Hemolysis: 0.206%
[12]; 4 µM
  Hemolysis: 0.371%
[12]; 8 µM
  Hemolysis: 0.43%
[12]; 16 µM
  Hemolysis: 0.525%
[12]; 32 µM
  Hemolysis: 0.835%
[12]; 64 µM
  Hemolysis: 1.043%
[13]; 1 µM
  HEK293T cell viability: 111.372%
[13]; 2 µM
  HEK293T cell viability: 111.629%
[13]; 4 µM
  HEK293T cell viability: 112.981%
[13]; 8 µM
  HEK293T cell viability: 107.36%
[13]; 16 µM
  HEK293T cell viability: 102.824%
[13]; 32 µM
  HEK293T cell viability: 100.41%
[13]; 64 µM
  HEK293T cell viability: 98.194%
[14]; 1 µM
  HaCaT cell viability: 99.202%
[14]; 2 µM
  HaCaT cell viability: 105.318%
[14]; 4 µM
  HaCaT cell viability: 103.256%
[14]; 8 µM
  HaCaT cell viability: 103.504%
[14]; 16 µM
  HaCaT cell viability: 102.717%
[14]; 32 µM
  HaCaT cell viability: 102.854%
[14]; 64 µM
  HaCaT cell viability: 101.039%

## RRRPRPPYLPRPRPPPFFPPRL [PR-39[1-22]]
[6]
  MIC: 32 µM
[15]
  MIC P. aeruginosa ATCC 27853: > 32 µM
[16]
  MIC M. luteus B-1314: > 32 µM
[7]
  MIC S. aureus ATCC 29213: > 32 µM
[8]
  MICs depending on the test medium: 8 to 16 µM
  Minimum inhibitory concentration (MIC): 8 µM
[17]
  MIC Proteus mirabilis XDR CI 3423: > 32 µM
